The test system of data set [1] is mitochondria within isolated cells. The settings on record: in vitro; cited from earlier work.
For data set [2] the following is noted: cited from earlier work; for gross signs of toxicity: fed in drinking water two or three days, 500 μM or 1 mM MitoQ or MitoS, 500 μM MitoVit E; for safety of long term feeding to mice: long term basis, potentially therapeutically effective concentrations within brain, heart, liver, muscle.
For data set [3], the system named is DDC-intoxicated mouse liver. Kind of data set: Hepatocyte damage in mouse liver upon 3 days exposure to DDC (0.1%), MitoQ versus vitamin E (histology). The settings on record: MitoQ 12 mg/kg peritoneally, vitamin E 100 mg/kg subcutaneously.
Experimental: FIGS. 3a and 3b: Comparison of MitoQ (12 mg/kg of animal;given peritoneally) and vitamin E (100 mg/kg of animal, applied subcutneously) effect on the degree of hepatocyte damage in mouse liver upon short term (3 days) exposure to DDC (0.1%)
Controls receive 300 μPBS only. Vitamin E is given subcutaneously in the same intervals as MitoQ at doses of 40 to 100 mg/kg dissolved in corn oil/PBS (1:5).
Data set [4] relates to fatty acid binding protein (FABP). Kind of data set: Western blot of fatty acid binding protein in liver extracts of intoxicated mice. It counts as in vivo, mouse. The settings on record: drug-intoxicated (paracetamol or carprofen) animals; versus non intoxicated vehicle controls. How it is done: (§1) Liver tissues are resuspended in ice-cold RIPA-buffer (50 mM Tris-HCl pH 7.4, 250 mM NaCl, 0.1% SDS, 1% deoxycholate, 1% NP-40) supplemented with 2 μg/ml leupeptin, 2 μg/ml pepstatin, 2 μg/ml aprotinin, 1 mM phenylmethylsulfonylfluoride (PMSF), and 2 mM dithiothreitol followed by homogenization through sonication (2 bursts of 5 seconds) on ice. After incubation for 20 minutes on ice, the lysates are cleared by two centrifugational steps in a microcentrifuge at 13,000 rpm for 15 minutes at 4° C. and the supernatants are collected. Protein concentrations are determined by the Bradford assay (Biorad) using bovine serum albumin as a standard. Equal amounts of protein (typically 10-30 μg) are separated on a 12% SDS-PAGE gel and transferred electrophoretically to a polyvinylidene diflouride (PVDF) membrane (Hybond-P, Amersham) through Semidry-blotting (TE 70, Amersham). The membrane is blocked for 1 hour at room temperature in blocking solution [5% milk in TBS-T (25 mM Tris-HCl pH 7.4, 137 mM NaCl, 3 mM KCl, comprising 0.1% Tween-20)] and incubated with the primary antibody solution (prepared in TBS-T/1% milk) at 4° C. overnight with agitation. […]
Furthermore, the protein expression level(s) of fatty acid binding protein (FABP) representing a sensitive marker for hepatocyte damage (Monbaliu D. et al., 2005, Transplant Proc. 37(1):413-416) is determined.
In general terms: In western blotting, separated proteins are transferred to a membrane and probed.

A further data set has as its system hemoxygenase 1 (HO-1). Briefly: Western blot of hemoxygenase 1 expression in liver extracts of intoxicated mice. The format is in vivo, mouse. The settings on record: densitometry. How it is done: To evaluate hemoxygenase 1 (HO-1) protein expression know to be induced by oxidative stress (Suematsu M. and Ishimura Y., 2000, Hepatology, 31(1): 3-6) standard western blot analysis is performed using protein extracts derived from paracetamol- (or carprofen) intoxicated mice treated simultaneously for 1day (or 3 days) with MitoQ (diluted in 1% DMSO in PBS), vitamin E or just vehicle itself (see protocols in Example 3).
as §1, with “Amersham).” for “Amersham). The membrane is blocked for 1 hour at room temperature in blocking solution [5% milk in TBS-T (25 mM Tris-HCl pH 7.4, 137 mM NaCl, 3 mM KCl, comprising 0.1% Tween-20)] and incubated with the primary antibody solution (prepared in TBS-T/1% milk) at 4° C. overnight with agitation.”

Data set [5] deals with paracetamol-intoxicated mice livers.
Experimental: Mice (8 weeks old) are fed a standard diet. Paracetamol is administered by oral gavage (500 mg/kg of animal). Carprofen is given by intraperitoneal injection (three times every 24 hours) in combination with 0.1% DDC which is included in the diet.
Mice are sacrified at different time-points of intoxication by cervical dislocation and the livers are either immediately snap-frozen in methylbutane precooled with liquid nitrogen for immunofluorescence or fixed in 4% buffered formaldehyde for routine histology and immunohistochemistry.
To evaluate the impact of the antioxidants according to the invention on regression of morphological alterations in early stages of paracetamol-intoxicated mice livers, a group of animals are treated on day one with MitoQ (a mixture of MitoQuinol [10-(3,6-dihydroxy-4,5-dimethoxy-2 methylphenyl)decyl]triphenylphosphonium bromide and MitoQuinone [10-(4,5-dimethoxy-2-methyl-3,6-dioxo-1,4-cyclohexadien-1-yl)decyl]-triphenylphosphonium bromide (provided by Prof. Albin Hermetter, TU Graz, AT), diluted with PBS/1% DMSO in three different concentrations (200 nM, 300 nM and 400 nM) intraperitoneally with maximum administration volume 100 μl (controls receive 100 μl PBS/1% DMSO only). For injections, MitoQ is dissolved in PBS supplemented with sufficient DMSO (preferably 1%) to maintain solubility of antioxidants. Intraperitoneal or i.v. (tail vein) injections are given to pairs of mice and compared with vehicle-injected controls. These correspond to maximum tolerated dose of 20 mg of MitoQ/kg/day (750 nmol) according to Smith R. A. J et al., 2003, PNAS, 100 (9): 5407-5412.
On the second day MitoQ treatment is continued, additionally mice are intoxicated with 500 mg/kg paracetamol diluted with PBS po (maximum administration volume is 300 μl).
For data set [6], the system named is carprofen- and DDC-intoxicated mice livers. Briefly: Hepatocyte damage in mouse liver upon 3 days exposure to carprofen in combination with DDC (histology). The settings on record: carprofen 5 mg/kg + DDC 0.1% in diet, MitoQ 300 nmol/animal in PBS/1% DMSO. It counts as in vivo. From the text:
Controls receive 300 μPBS only.

The test system of data set [7] is alanine- and aspartate aminotransferase. Kind of data set: Serum liver enzymes (blood parameters) in intoxicated animals. The format is in vivo, mouse. The settings on record: compared to intoxicated control group.
Data set [8] deals with immortalized hepatocytes (Fa2N-4 or Ea1C-35). Kind of data set: Reactive oxygen species in immortalized hepatocytes. The format is cell-based. The settings on record: for ROS formation: hepatocytes intoxicated with e.g. paracetamol (10 mM for 2 hours), DDC or BSO, simultaneous treatment at EC50 concentrations.
Experimental: Tested hepatocytes are grown in 96-well plates in culture medium (DMEM supplemented with 10% FCS, Gibco) to 80% confluency in the presence of paracetamol, subsequently washed with HBSS and incubated in the dark with DHE (10-50 μM) for 10 minutes at 37° C. Cells are then washed twice with Hank's balanced salt solution (HBSS, Gibco) to remove excess dye. Fluorescence is monitored in a fluorescence microscope (Olympus, Hamburg, Germany).
To determineDCF fluorescence in a microplate reader (Tecan, Crailsheim, Germany), immortalized hepatocytes are grown in 96-well plates to 80% confluency in presence of paracetamol. The cells are then washed twice with Hank's balanced salt solution (HBSS, Gibco) and incubated in the dark with CM-H2DCFDA (8.5 μM) dissolved in HBSS containing N-co-nitro-L-arginine methyl ester (L-NAME, 10 μM) for 10 minutes at 37° C. to prevent the formation of NO. After several washes with HBSS to remove excess dye, fluorescence is monitored by using 480 nm excitation and 540 nm emission wavelength. DCF fluorescence is standardized to the number of viable cells using the Alamar Blue test according to the manufacturer's instructions (Biosource, Nivelles, Belgium). […] The absorbance is then measured at the wavelength of 580 nm.
Optionally, ROS production can be assessed by flow cytometric analysis of CM-H2DCFDA stained cells. The cells intoxicated with paracetamol are detached and harvested by trypsinisation, collected by centrifugation and resuspended in HBSS at a concentration of 1×10^6 cells/ml. Cells are then loaded with 8.5 μM CM-H2DCFDA for 15 minutes in the dark at 37° C. before stimulation. The DCF fluorescence is monitored by analyzing 10,000 cells using 480 nm excitation and 540 nm emission wavelengths in a flow cytometer (Partec, Muenster, Germany).
The hepatocytes are then washed once with HBSS (Hanks' Balanced Salt Solution, Gibco) and incubated with MitoQ in concentration range of 0.5 to 10 μM or the respective amount of DMSO (Sigma). After 15 min DCF is added to the cells (final concentration of 8 μM) and cells are incubated with the dye for 10 min. After loading the media is removed and fresh HBSS is added containing MitoQ and CoCl2 (100 μM).
After 3 subsequent washing the cells are equilibrated in plates containing 1 ml of 50 mmol/L HEPES (pH 7.4), 135 mmol/L NaCl, 1 mmol/L CaCl2, 1 mmol/L MgCl2, 5 mmol/L KCl, 5.5 mmol/L glucose, and 5 μmol/L lucigenin as the electron acceptor. The light reaction between superoxide and lucigenin is detected using a chemiluminescence reader (Lumistar, BMG laboratories, Germany). The chemiluminescence signal is expressed as average counts per minute and normalized to cell number as determined by cell counter (Casy Technology Instrument, Schärfe-System, Germany).
In data set [9] the test system is mice intoxicated with valproic acid. Kind of data set: Long term (three weeks) valproic acid intoxication, liver histology. It counts as in vivo, mouse. The settings on record: valproic acid 0.71% weight/volume for three weeks; 1.25 mg/kg daily i.p. or i.v.; compared to controls. How it is done: Chronic liver damage can be assessed in mice intoxicated with valproate (0.71% weight/volume) for up to 21 days when fatty degeneration of hepatocytes, activation of Kupffer cells, inflammation and hepatocyte necrosis can be detected (Raza M. 2000, Int J Tissue React., 22(1): 15-21).
In long term experiments by using mice intoxicated for three weeks with valproic acid (0.71% weight/volume), the presence (or absence) of cell damage in liver samples of treated animals is determined and compared to the corresponding control groups of animals.

Where [10] appears, read: paracetamol 500 mg/kg, 1 day, MitoQ 300 nmol/animal in PBS/1% DMSO, simultaneous, 24 hours pretreatment.
Where [11] appears, read: concentration used for treatment of intoxicated immortalized hepatocytes, read-out: EC50.

Entries after “also recorded” stand apart in the source; their conditions may differ. Where two headings read alike, the source gives them in different places.

As to `Cc1c(C)c2c(c(C)c1O)CCC(C)(CC[P+](c1ccccc1)(c1ccccc1)c1ccccc1)O2` (stereo not drawn) [MitoVit E, [2-(3,4-dihydro-6-hydroxy-2,5,7,8-tetramethyl-2H-1-benzopyran-2-yl)ethyl]-triphenylphosphonium bromide], the accumulation by mitochondria entry in [1] was “rapidly and selectively accumulated”. Besides, in data set [2] (500 μM in drinking water), the maximum tolerated dose is listed as 60 mg/kg/day. Also, in [2], the “gross signs of toxicity” value is “without any gross signs of toxicity” and the “safety of long term feeding to mice” value was “could be fed safely”.
For the compound MitoQ, the accumulation by mitochondria entry in [1] was “rapidly and selectively accumulated”. In data set [2], the “gross signs of toxicity” value is “without any gross signs of toxicity” and the “safety of long term feeding to mice” value is “could be fed safely”. Further, in [3], the inflammatory cells result is given as “absent”, the liver morphology entry is on record as “restores normal liver morphology” and the “protoporphyrin accumulation in the bile ducts” value is given as “persists”. In data set [4], the FABP protein expression result is “reaches almost control mice FABP protein expression values; also recorded: reach almost control mice FABP expression values”. Moreover, the HO-1 protein expression entry with hemoxygenase 1 (HO-1) (compared to paracetamol intoxicated group of animals) is listed as “significant reduction”. Moreover, the HO-1 protein expression result in the data set with hemoxygenase 1 (HO-1) (compared to vitamin E treated mice) is on record as “less significant reduction”. In [5] (setting [10]), the “blood congestion in the sinusoids” value is on record as “reduces blood congestion in the sinusoids” and the necrotic hepatocytes result was “only few single necrotic cells are seen”. In [5] (short-term experiments overall (paracetamol; carprofen + DDC), compared to vitamin E or untreated animals), the “liver architecture (strands of hepatocytes bordered by sinusoids)” value is listed as “is again visible”. In addition, in data set [6], the inflammatory cells entry is reported as “absent” and the liver morphology entry was “restores normal liver morpohology”. Moreover, the “reduction of liver damage by serum liver enzymes (alanine- and aspartate aminotransferase)” value in data set [7] was “significant reduction”. The EC50 (as a rule, the concentration needed to bring the measured effect to its halfway point) in [8] (setting [11]) came to 1 µM. In data set [8], the ROS formation result is “significant reduction”. Moreover, the “degree of cell damage” value in data set [9] is reported as “greatly reduced”.
Regarding vitamin E [reference compound], in [3], the inflammatory cells entry is “still present in the periportal area”, the liver morphology entry is “only partially restores normal liver morphology” and the “protoporphyrin accumulation in the bile ducts” value was “persists”. Besides, in data set [7], the “reduction of liver damage by serum liver enzymes (alanine- and aspartate aminotransferase)” value is “less significant effect”. The EC50 in [8] (setting [11]) was 10 µM. Besides, the ROS formation result in [8] is “significant reduction”.
For the compound `C[P+](c1ccccc1)(c1ccccc1)c1ccccc1` [TPMP, reference compound], the “safety of long term feeding to mice” value in data set [2] is on record as “could be fed safely”.
On to `CCOC(=O)C1=C(C)NC(C)=C(C(=O)OCC)C1C` [DDC], for which, in [8] (intoxicant, hepatocytes incubated up to 72 hours in culture medium (DMEM and 10% FCS)), the EC50 is recorded as 50 μg/ml of medium.

(Values after patent US20070161609A1, “Use of mitochondrially targeted antioxidant in treatment and prevention of drug-induced liver disease” (priority 2006, published 2007).)
